The text below walks through data of patent US20110152166A1, “METHOD OF MODULATION OF PROTEIN PHOSPHORYLATION-DEPENDENT CONFORMATIONAL TRANSITIONS WITH LOW MOLECULAR WEIGHT COMPOUNDS” (priority 2006, published 2011).

Common to all, as to test: PDK1 activity assay with T308tide
Holding throughout (type): biochemical

Assay [1] deals with T1, GST-PDK1 [Gln150Glu] (Homo sapiens, UniProt O15530, Q150E).
T1 construct: different protein constructs, comprising the full length protein or the catalytic domain alone; made in house; host or cells: HEK293 cells (pEBG-2T-PDK1 mutant)
T1 sequence (O15530 1-556 Q150E): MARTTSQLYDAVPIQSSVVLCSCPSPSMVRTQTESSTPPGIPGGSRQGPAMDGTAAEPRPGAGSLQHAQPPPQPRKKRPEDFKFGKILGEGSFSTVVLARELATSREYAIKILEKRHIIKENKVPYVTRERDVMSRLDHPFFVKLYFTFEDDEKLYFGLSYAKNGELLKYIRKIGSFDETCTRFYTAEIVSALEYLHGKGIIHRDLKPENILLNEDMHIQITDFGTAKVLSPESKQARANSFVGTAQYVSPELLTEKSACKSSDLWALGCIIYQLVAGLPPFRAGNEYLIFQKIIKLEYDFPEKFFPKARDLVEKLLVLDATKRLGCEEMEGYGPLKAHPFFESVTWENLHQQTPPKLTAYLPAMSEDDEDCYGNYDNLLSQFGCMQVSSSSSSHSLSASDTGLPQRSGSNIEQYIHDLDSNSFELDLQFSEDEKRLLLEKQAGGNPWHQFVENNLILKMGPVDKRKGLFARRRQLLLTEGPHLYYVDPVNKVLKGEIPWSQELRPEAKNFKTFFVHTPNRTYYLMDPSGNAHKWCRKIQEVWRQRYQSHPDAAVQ

Assay [2] has as its target T2, GST-PDK1 [Val124Leu] (Homo sapiens, UniProt O15530, V124L).
T2 construct: different protein constructs, comprising the full length protein or the catalytic domain alone; made in house; host or cells: HEK293 cells (pEBG-2T-PDK1 mutant)
T2 sequence (O15530 1-556 V124L): T1 sequence (O15530 1-556 Q150E) with V124L, E150Q

Assay [3] has as its target T3, GST-PDK1 [Ser135Ala] (Homo sapiens, UniProt O15530, S135A).
T3 construct: different protein constructs, comprising the full length protein or the catalytic domain alone; made in house; host or cells: HEK293 cells (pEBG-2T-PDK1 mutant)
T3 sequence (O15530 1-556 S135A): T1 sequence (O15530 1-556 Q150E) with S135A, E150Q

In assay [4] the target is T4, GST-PDK1 [Lys115Met] (Homo sapiens, UniProt O15530, K115M).
T4 construct: different protein constructs, comprising the full length protein or the catalytic domain alone; made in house; host or cells: HEK293 cells (pEBG-2T-PDK1 mutant)
T4 sequence (O15530 whole entry K115M, the tested form may be a part): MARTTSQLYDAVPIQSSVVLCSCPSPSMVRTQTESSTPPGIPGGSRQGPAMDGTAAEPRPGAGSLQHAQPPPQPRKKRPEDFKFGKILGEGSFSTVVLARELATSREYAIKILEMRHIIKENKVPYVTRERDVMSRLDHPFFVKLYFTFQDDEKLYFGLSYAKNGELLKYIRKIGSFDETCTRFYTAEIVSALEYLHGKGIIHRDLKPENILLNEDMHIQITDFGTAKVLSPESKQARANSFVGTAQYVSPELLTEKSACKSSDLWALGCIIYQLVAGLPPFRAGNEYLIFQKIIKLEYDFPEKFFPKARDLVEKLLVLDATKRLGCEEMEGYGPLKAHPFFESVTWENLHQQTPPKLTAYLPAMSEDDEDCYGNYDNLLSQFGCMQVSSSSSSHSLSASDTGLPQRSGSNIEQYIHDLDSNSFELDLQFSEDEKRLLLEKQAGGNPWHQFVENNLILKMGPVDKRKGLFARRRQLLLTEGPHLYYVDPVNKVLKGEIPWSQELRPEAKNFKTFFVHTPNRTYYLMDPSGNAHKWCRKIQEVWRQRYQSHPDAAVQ

Where a chain is given by its changes, count along the chain named. Where two headings read alike, the source gives them in different places. Ends that are not written are not given here.

As usually defined, the AC50 is the concentration giving half of the maximal activity seen. Consider `O=C(O)CSC(CC(=O)c1ccc(Cl)cc1)c1ccccc1` (stereo not shown) [Compound 1], for which the Max. activity in assay [1] was found to be 2.5 ± 0.7 U/mg; in assay [2] it was 1.1 ± 0.13 U/mg; in assay [3] it was 2.82 ± 0.4 U/mg. Moreover, the AC50 in assay [1] (read-out: AC50) is more than 200 µM; in assay [2], 180 ± 60 µM; in assay [3], 109 ± 33 µM; in assay [4] (read-out: AC50), more than 200 µM.

For “REPRILSEEEQEMFRDFDYIADWC [PIFtide, reference compound]”, the AC50 result is “No Effect” in assay [1], 0.35 ± 0.2 µM in assay [2], 0.18 ± 0.02 µM in assay [3] and “No Effect” in assay [4]. Further, the Max. activity came out at 0.59 ± 0.04 U/mg in assay [2] and 3.4 ± 0.09 U/mg in assay [3].
